These results are taken from article PMC8764529, “Diversification by CofC and Control by CofD Govern Biosynthesis and Evolution of Coenzyme F420 and Its Derivative 3PG-F420” (mBio, 2022).

Each structure is given as a SMILES string.

In one experiment the target is T1, Mmaz-CofC (Methanosarcina mazei, UniProt Q8PU52).
T1 construct: N-terminal His6, E. coli
T1 sequence (Q8PU52 1-208): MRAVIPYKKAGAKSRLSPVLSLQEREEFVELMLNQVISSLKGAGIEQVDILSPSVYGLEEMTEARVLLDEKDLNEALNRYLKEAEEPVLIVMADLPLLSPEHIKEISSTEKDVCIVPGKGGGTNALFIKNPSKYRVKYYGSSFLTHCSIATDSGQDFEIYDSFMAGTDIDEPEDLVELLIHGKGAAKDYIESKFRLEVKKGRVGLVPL
The experiment is described as follows: combined CofC/D assay, LC-MS. Conditions: competitive mixture of 3-PG, 2-PL, PEP (0.5 mM each), 2 mM GTP, 2 mM MgCl2, FO, Mjan-CofD, pH 7.4. The experiment is classed as biochemical.

The target of a further experiment is T2, CofC (Archaeon GBE54128) (archaeon BMS3Bbin15, UniProt A0A2H6JTR5).
T2 construct: N-terminal His6, E. coli; synthetic gene
T2 sequence (A0A2H6JTR5 1-207): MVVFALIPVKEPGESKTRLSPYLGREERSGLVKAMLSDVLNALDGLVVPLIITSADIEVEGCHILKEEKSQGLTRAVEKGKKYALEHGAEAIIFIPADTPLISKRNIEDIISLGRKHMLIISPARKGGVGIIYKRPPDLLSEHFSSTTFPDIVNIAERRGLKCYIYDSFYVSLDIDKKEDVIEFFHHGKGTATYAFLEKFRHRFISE
The experiment is described as follows: combined CofC/D assay, LC-MS. The experiment is classed as biochemical. To be noted: competitive mixture of 3-PG, 2-PL, PEP ([…] each), […] GTP, […] MgCl2, FO, Mjan-CofD, pH […].

In the next experiment the target is T3, CofC (Ca. H. archaeon) (Candidatus Hydrothermarchaeota archaeon, UniProt A0A497JEJ7).
T3 construct: N-terminal His6, E. coli; synthetic gene; full organism name only in supplement
T3 sequence (A0A497JEJ7 1-207): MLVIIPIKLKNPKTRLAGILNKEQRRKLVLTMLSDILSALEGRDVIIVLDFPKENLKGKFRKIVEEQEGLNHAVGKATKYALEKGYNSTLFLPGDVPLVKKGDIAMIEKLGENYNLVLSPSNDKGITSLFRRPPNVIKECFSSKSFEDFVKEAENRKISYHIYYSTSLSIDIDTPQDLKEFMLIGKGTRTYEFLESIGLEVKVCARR
The experiment is described as follows: combined CofC/D assay, LC-MS. It counts as biochemical. To be noted: competitive mixture of 3-PG, 2-PL, PEP ([…] each), […] GTP, […] MgCl2, FO, Mjan-CofD, pH […].

A further experiment has as its target T4, Msmeg-FbiD (Mycolicibacterium smegmatis, UniProt A0QUZ4).
T4 construct: N-terminal His6, full length, E. coli (plasmid pMH10)
The experiment is described as follows: combined CofC/D assay, LC-MS. It counts as biochemical. To be noted: competitive mixture of 3-PG, 2-PL, PEP (0.5 mM each), 2 mM GTP, 2 mM MgCl2, FO, Mjan-CofD, pH 7.4.

Another experiment addresses T5, CofC (Ca. E. factor) (Candidatus Entotheonella factor, UniProt W4LIL2).
T5 construct: gene ETSY1_21445; N-terminal His6, E. coli
The experiment is described as follows: combined CofC/D assay, LC-MS. The experiment is classed as biochemical. To be noted: competitive mixture of 3-PG, 2-PL, PEP (0.5 mM each), 2 mM GTP, 2 mM MgCl2, FO, Mjan-CofD, pH 7.4.

For experiment [1], the target named is T6, CofC (Thermomicrobium roseum) (Thermomicrobium roseum, UniProt B9L4T8).
T6 construct: gene fbiD; N-terminal His6, E. coli
T6 sequence (B9L4T8 1-200): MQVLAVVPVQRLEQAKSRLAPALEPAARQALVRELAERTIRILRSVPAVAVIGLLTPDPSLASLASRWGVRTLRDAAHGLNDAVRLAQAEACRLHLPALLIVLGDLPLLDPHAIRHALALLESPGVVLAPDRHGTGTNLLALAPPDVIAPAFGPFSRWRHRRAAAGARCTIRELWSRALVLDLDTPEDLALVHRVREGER
The experiment is described as follows: combined CofC/D assay, LC-MS. Conditions: competitive mixture of 3-PG, 2-PL, PEP (0.5 mM each), 2 mM GTP, 2 mM MgCl2, FO, Mjan-CofD, pH 7.4. It counts as biochemical.

The target of experiment [2] is T7, CofC (Paracoccus denitrificans) (Paracoccus denitrificans, UniProt A1B131).
T7 construct: gene Pden_1117; N-terminal His6, E. coli
T7 sequence (A1B131 1-216): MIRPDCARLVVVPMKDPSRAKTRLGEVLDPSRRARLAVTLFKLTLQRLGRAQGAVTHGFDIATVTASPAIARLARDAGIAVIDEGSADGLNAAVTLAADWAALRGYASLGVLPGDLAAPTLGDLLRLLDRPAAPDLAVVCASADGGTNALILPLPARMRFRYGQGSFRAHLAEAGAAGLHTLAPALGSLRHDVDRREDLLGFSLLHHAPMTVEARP
The experiment is described as follows: combined CofC/D assay, LC-MS. Conditions: competitive mixture of 3-PG, 2-PL, PEP (0.5 mM each), 2 mM GTP, 2 mM MgCl2, FO, Mjan-CofD, pH 7.4. It counts as biochemical.

In experiment [3] the target is T8, CofC (Oligotropha carboxidovorans) (Afipia carboxidovorans, UniProt B6JBS5).
T8 construct: gene fbiD; N-terminal His6, E. coli
T8 sequence (B6JBS5 1-237): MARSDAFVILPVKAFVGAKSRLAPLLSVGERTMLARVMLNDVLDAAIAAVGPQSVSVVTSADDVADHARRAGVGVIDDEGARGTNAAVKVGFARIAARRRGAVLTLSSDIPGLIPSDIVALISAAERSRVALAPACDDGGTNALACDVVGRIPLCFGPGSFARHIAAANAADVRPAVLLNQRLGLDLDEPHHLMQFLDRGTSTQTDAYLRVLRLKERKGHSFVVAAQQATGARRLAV
The experiment is described as follows: combined CofC/D assay, LC-MS. To be noted: competitive mixture of 3-PG, 2-PL, PEP (0.5 mM each), 2 mM GTP, 2 mM MgCl2, FO, Mjan-CofD, pH 7.4. The experiment is classed as biochemical.

The target in a further experiment is T9, Mrhiz-CofC (Mycetohabitans rhizoxinica, UniProt E5ASS2).
T9 construct: N-terminal His6, full length, E. coli (plasmid pFS03)
T9 sequence (E5ASS2 6-221): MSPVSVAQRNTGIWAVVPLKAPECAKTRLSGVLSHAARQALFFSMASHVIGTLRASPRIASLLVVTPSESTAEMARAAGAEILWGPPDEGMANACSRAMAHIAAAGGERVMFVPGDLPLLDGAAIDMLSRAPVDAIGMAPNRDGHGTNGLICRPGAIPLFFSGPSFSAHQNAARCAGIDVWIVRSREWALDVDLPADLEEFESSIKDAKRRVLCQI
The experiment is described as follows: combined CofC/D assay, LC-MS. The experiment is classed as biochemical. To be noted: competitive mixture of 3-PG, 2-PL, PEP (0.5 mM each), 2 mM GTP, 2 mM MgCl2, FO, cognate CofD, pH 7.4.

Another experiment addresses T10, Mjan-CofD (Methanocaldococcus jannaschii, UniProt Q58653).
T10 construct: N-terminal His6, E. coli
The experiment is described as follows: combined CofC/D assay, LC-MS. Conditions: coupled to CofC homologs forming LPPG, EPPG or GPPG; 2 mM GTP, 2 mM MgCl2, pH 7.4. The experiment is classed as biochemical.

A further experiment addresses T11, CofC (nano-DSF).
T11 construct: N-terminal His6, E. coli; Results place the test beside MycB3-CofC, Discussion names M. rhizoxinica
The experiment is described as follows: nano-DSF. It counts as binding. To be noted: GPPG co-purified with the enzyme may be present. For orientation: DSF heats the sample and reads unfolding from a dye or from intrinsic fluorescence.

T4 sequence (A0QUZ4 whole entry): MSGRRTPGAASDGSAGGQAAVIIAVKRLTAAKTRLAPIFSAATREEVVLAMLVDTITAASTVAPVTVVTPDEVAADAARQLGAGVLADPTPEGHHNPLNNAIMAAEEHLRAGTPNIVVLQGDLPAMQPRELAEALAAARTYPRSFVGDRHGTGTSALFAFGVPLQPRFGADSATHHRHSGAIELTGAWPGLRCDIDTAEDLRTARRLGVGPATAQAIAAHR
T10 sequence (Q58653 whole entry): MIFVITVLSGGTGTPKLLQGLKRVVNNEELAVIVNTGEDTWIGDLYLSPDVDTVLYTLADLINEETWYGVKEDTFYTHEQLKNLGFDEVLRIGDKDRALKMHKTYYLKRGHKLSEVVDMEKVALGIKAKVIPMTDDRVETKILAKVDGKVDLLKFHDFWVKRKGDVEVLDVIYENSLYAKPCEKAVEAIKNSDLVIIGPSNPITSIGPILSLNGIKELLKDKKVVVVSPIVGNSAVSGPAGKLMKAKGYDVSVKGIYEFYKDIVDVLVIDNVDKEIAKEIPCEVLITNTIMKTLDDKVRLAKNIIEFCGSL
T5 sequence (W4LIL2 entry or part of it): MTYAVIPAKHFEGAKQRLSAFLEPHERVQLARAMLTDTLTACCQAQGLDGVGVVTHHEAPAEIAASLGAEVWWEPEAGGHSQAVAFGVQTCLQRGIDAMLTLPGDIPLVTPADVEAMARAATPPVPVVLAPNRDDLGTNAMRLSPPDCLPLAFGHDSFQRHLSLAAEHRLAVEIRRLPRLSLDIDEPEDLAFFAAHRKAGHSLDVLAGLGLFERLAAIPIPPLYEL

Turning to `C[C@H](OP(=O)(O)O)C(=O)O` [2-PL], the “combined CofC/D assay, LC-MS” value on Mmaz-CofC was “For all CofC-related enzymes analyzed, 2-PL was used most efficiently”; on CofC (Archaeon GBE54128), 2-PL was the best substrate of all three enzymes; on CofC (Ca. H. archaeon) it was 2-PL was the best substrate of all three enzymes; on Msmeg-FbiD, “the M. smegmatis FbiD tested in this study preferred 2-PL as substrate”; on CofC (Ca. E. factor), “For all CofC-related enzymes analyzed, 2-PL was used most efficiently”; in experiment [1], “For all CofC-related enzymes analyzed, 2-PL was used most efficiently”. For the same molecule, the “combined CofC/D assay, LC-MS” value in experiment [2] is listed as “For all CofC-related enzymes analyzed, 2-PL was used most efficiently”; in experiment [3] it was “For all CofC-related enzymes analyzed, 2-PL was used most efficiently”.

For the molecule `O=C(O)[C@H](O)COP(=O)(O)O` [3-PG], the “combined CofC/D assay, LC-MS” value at CofC (Archaeon GBE54128) is reported as “all of those enzymes accepted 3-PG as substrates”; on CofC (Ca. H. archaeon), “all of those enzymes accepted 3-PG as substrates”; on Mrhiz-CofC it was “combined with their cognate CofD, the apparent substrate specificity shifted almost completely toward 3-PG”.

`O=c1nc2n(C[C@H](O)[C@H](O)[C@H](O)CO)c3cc(O)ccc3cc-2c(=O)[nH]1` [FO, 7,8-didemethyl-8-hydroxy-5-deazariboflavin]: the “combined CofC/D assay, LC-MS” value at Mjan-CofD was “Distinct derivatives of F420-0 were produced via biochemical reaction of purified CofC and CofD”.

For the molecule `Nc1nc2c(ncn2[C@@H]2O[C@H](COP(=O)(O)OP(=O)(O)OP(=O)(O)O)[C@@H](O)[C@H]2O)c(=O)[nH]1` [GTP], the Kd on CofC (nano-DSF) was below 20 µM.

In general, Kd refers to a measure of binding affinity in units of concentration. A low value points to tighter binding.
